Source: patent US8328934B2, “Crystal of GTP Cyclohydrolase Type IB” (priority 2007, dated 2012)
Like-named read-outs stand apart in the source and are kept apart here.

Legend:
Format in all cases: biochemical
B. subtilis GCYH-IB [1] = molecular target: T1, B. subtilis GCYH-IB (Bacillus subtilis, UniProt P94398); conditions: for metal ion supports catalysis: apoenzyme assayed with specific metal ions over a broad concentration range; for relative activity (%): at the metal concentration for optimal activity, relative to Mn(II); for [Metal] (metal concentration for optimal activity): apoenzyme 2 μM, metal 0.1 μM-4 mM, 0.1 mM GTP
T1 construct: His6 (cleaved yes); made in house; host or cells: E. coli BL21 (DE3), pET-30 Xa/LIC plasmid pSAB-9-61
T1 sequence (P94398 1-304): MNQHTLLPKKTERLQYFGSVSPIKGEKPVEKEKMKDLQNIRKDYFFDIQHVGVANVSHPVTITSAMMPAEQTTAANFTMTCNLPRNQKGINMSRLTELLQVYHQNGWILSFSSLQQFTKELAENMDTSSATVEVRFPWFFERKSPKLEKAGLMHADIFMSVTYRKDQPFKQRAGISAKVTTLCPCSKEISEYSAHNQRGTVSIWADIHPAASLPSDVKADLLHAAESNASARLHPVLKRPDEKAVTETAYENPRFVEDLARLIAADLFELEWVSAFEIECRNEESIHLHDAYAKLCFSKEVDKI
Experimental: It is well established that GCYH-IA uses a bound Zn^2+ ion for activity. Nichol et al., 1985. To investigate the metal dependence of GCYH-IB, the purified recombinant B. subtilis enzyme was assayed for activity in the presence of a variety of metal ions or EDTA. […] To obtain unambiguous, quantitative data on the effect of various metal ions on catalytic activity, the enzyme was first demetallated by dialyzing against an EDTA/Chelex-containing buffer to generate the apoenzyme, which was then assayed in the presence of specific metal ions over a broad concentration range.
(§1) Enzyme Activity Assays: All chemicals were of analytical, metal-free grade from Sigma or Fisher. All solutions were prepared with Milli-Q water (18.2 MΩ) and treated with Chelex-100 (BioRad) to remove contaminating metals. Glassware were soaked in nitric acid (10%), then EDTA (5 mM) and rinsed liberally with Chelex-treated Milli-Q water before use. Activity assays were conducted as described previously (El Yacoubi et al, 2006) using either variable concentrations of metal or EDTA (5 mM), and 0.1 mM GTP.
(§2) Apoenzyme Preparation: Metal ions were removed from B. subtilis and N. gonorrhoeae GCYH-IB by incubating the purified, recombinant protein (0.5 ml) with EDTA (5 mM, 1 hr, 21° C.) followed by dialysis thrice against a 4-liter solution of Tris-HCl (50 mM, pH 8.0), KCl (50 mM), EDTA (5 mM) and a few grams of Chelex-100. The resulting apoenzyme was dialyzed thrice against 3 L of Tris-HCl (50 mM, pH 8.0), KCl (50 mM), and Chelex-100 to remove EDTA and passed through Chelex-100 resin (5 ml protein solution per 3 ml resin) prior to activity assays. Protein concentrations were determined spectrophotometrically.
Metal Activation Studies: The B. subtilis apoenzyme (2 μM) was incubated with varying concentrations (0.1 μM-4 mM) of metal chlorides (MnCl2, ZnCl2, MgCl2, NiCl2, CaCl2, CdCl2, CoCl2, CuCl2, CoCl3, FeCl3) or Fe(SO4) in standard buffer (100 mM HEPES, pH 8.0, 100 mM KCl) for 10 min at 37 C, and assayed for activity as described above. All assays involving Fe^2+ were conducted in an anaerobic chamber with degassed and N2-purged buffers.

B. subtilis GCYH-IB [2] = molecular target: T1, B. subtilis GCYH-IB; assay: Effect of zinc on GCYH-IB activity in the presence of Mn(II); conditions: 600 μM Mn(II)
Experimental: (§3) The presence of both Zn^2+ and Mn^2+ in a reaction assay results in diminished activity (i.e. Zn^2+ is an inhibitor versus Mn^2+, Table 6). All of the metals bind the enzymes with low affinity, such that running the protein over a G-25 column or dialyzing against metal free buffer removed the protein bound metal.
as §1, §2

N. gonorrhoeae GCYH-IB = molecular target: T2, N. gonorrhoeae GCYH-IB (Neisseria gonorrhoeae, UniProt Q5F9K6); assay: as above; conditions: 600 μM Mn(II)
T2 construct: His6 (cleaved yes); made in house; host or cells: E. coli BL21 (DE3), pET-30 Xa/LIC plasmid pSAB-8-142
T2 sequence (Q5F9K6 1-257): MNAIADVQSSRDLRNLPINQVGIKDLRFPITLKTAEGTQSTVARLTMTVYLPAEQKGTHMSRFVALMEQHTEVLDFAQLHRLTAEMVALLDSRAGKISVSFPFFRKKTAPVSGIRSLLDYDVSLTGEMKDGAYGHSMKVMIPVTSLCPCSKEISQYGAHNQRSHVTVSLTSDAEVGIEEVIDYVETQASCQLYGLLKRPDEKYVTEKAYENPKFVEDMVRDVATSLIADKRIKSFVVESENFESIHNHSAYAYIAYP
Experimental: as §3, §1, §2

Row | SMILES | metal ion supports catalysis (B. subtilis GCYH-IB [1]) | relative activity (%) (B. subtilis GCYH-IB [1]) | [Metal] (metal concentration for optimal activity) (B. subtilis GCYH-IB [1]) | further results
1 | [Ca+2] [Ca(II)] | fail to support activity | 0% |  | 
2 | [Cd+2] [Cd(II)] | fail to support activity | 0% |  | 
3 | [Co+2] [Co(II)] |  | 24 ± 3% | 100 µM | 
4 | [Co+3] [Co(III)] |  | 0% |  | 
5 | [Cu+2] [Cu(II)] | fail to support activity | 0% |  | 
6 | O=C(O)CN(CCN(CC(=O)O)CC(=O)O)CC(=O)O [EDTA, reference compound] |  |  |  | activity in the presence of EDTA (B. subtilis GCYH-IB [1]): no activity was observed
7 | [Fe+2] [Fe(II)] |  | 75 ± 8% | 1000 µM | 
8 | [Fe+3] [Fe(III)] |  | 0% |  | 
9 | [Mg+2] [Mg(II)] | catalysis is supported | 43 ± 4% | 100 µM | 
10 | [Mn+2] [Mn(II)] | catalysis is supported | 100% | 500 µM | 
11 | [Ni+2] [Ni(II)] | catalysis is supported | 9.8 ± 1.3% | 100 µM | 
12 | [Zn+2] [Zn(II)] | catalysis is supported | 14 ± 1% | 50 µM | optimum metal concentration required for catalysis, fold lower than for Mn^2+ (B. subtilis GCYH-IB [1]; Zn^2+ versus Mn^2+): roughly 10 fold; relative activity (%) (B. subtilis GCYH-IB [2]; 0.5 μM zinc): 84%; relative activity (%) (B. subtilis GCYH-IB [2]; 1 μM zinc): 41%; relative activity (%) (B. subtilis GCYH-IB [2]; 2 μM zinc): 34%; relative activity (%) (B. subtilis GCYH-IB [2]; 4 μM zinc): 35%; relative activity (%) (B. subtilis GCYH-IB [2]; 10 μM zinc): 35%; relative activity (%) (B. subtilis GCYH-IB [2]; 20 μM zinc): 26%; relative activity (%) (B. subtilis GCYH-IB [2]; 40 μM zinc): 23%; relative activity (%) (N. gonorrhoeae GCYH-IB; 0.5 μM zinc): 93%; relative activity (%) (N. gonorrhoeae GCYH-IB; 1 μM zinc): 68%; relative activity (%) (N. gonorrhoeae GCYH-IB; 2 μM zinc): 57%; relative activity (%) (N. gonorrhoeae GCYH-IB; 4 μM zinc): 47%; relative activity (%) (N. gonorrhoeae GCYH-IB; 10 μM zinc): 53%; relative activity (%) (N. gonorrhoeae GCYH-IB; 20 μM zinc): 45%; relative activity (%) (N. gonorrhoeae GCYH-IB; 40 μM zinc): 45%
